What was measured:
Type in all cases: cell-based, mouse
iKras p53L/+ cells [1] = test: QPCR of metabolism genes in inhibitor-treated iKras p53L/+ cells; settings: AZD8330 50 nM, 18 hr, FIG. 41
Procedure: FIG. 41 is a bar graph showing the relative mRNA expression of the indicated genes in iKras p53L/+ cells treated with MEK inhibitor, AZD8330 (50 nM), BKM120 (150 nM), or Rapamycin (20 nM) for 18 hours. Error bars represent SD of the mean; *p<0.05; **p<0.01.
To further dissect the downstream mechanism of Kras^G12D-mediated metabolic reprogramming, specific pharmacological inhibitors were used to examine the impact of effector pathways on tumor metabolism. iKras p53L/+ cells were treated with AZD8330 (50 nM), BKM120 (150 nM), or Rapamycin (20 nM) for 18 hr. In parallel, cells were cultured in the presence or absence of doxy for 24 hr to serve as controls and relative mRNA levels of indicated metabolism genes were measured by QPCR. Some cell lysates were blotted for phospho-Akt, phospho-Erk, phospho-S6, and Myc. […] To gain further insight into the Kras^G12D-mediated transcriptional regulation that facilitates metabolic reprogramming, promoter analysis was performed on differentially expressed genes upon Kras^G12D inactivation.

iKras p53L/+ cells [2] = test: Steady-state metabolite levels by targeted LC-MS/MS in inhibitor-treated cells; settings: 18 hr
Procedure: FIG. 43 is a bar graph showing the relative steady-state levels of the indicated metabolites measured by targeted LC-MS/MS, in iKras p53L/+ cells treated with AZD8330 (50 nM), BKM120 (150 nM), or Rapamycin (20 nM) for 18 hours. As control, cells were cultured in the presence or absence of doxycycline for 24 hours. Error bars represent SD of the mean. *p<0.05; **p<0.01.
Two independent iKras p53^L/+ tumor lines and one LSL-Kras p53^L/+ line were maintained in basal media in the presence or absence of doxycycline for 24 h. Fresh media was added 2 hours before the experiment. For metabolite collection, media from technical triplicates (in 10 cm dishes at ˜70% confluence) was fully aspirated and 4 mL of 80% (v/v) methanol was added at dry ice temperatures. Cells and the metabolite-containing supernatants were collected into conical tubes. Insoluble material in lysates was centrifuged at 2,000×g for 15 min, and the resulting supernatant was evaporated using a refrigerated speed vac. […] Ten microliters were injected and analyzed using a 5500 QTRAP hybrid triple quadrupole mass spectrometer (AB/SCIEX) coupled to a Prominence UFLC HPLC system (Shimadzu) via selected reaction monitoring (SRM) of a total of 254 endogenous water soluble metabolites for steady-state analyses of samples. […] Approximately 9-12 data points were acquired per detected metabolite. […]

iKras p53L/+ cells [3] = test: Western blot for phospho-Akt, phospho-Erk, phospho-S6 and Myc in inhibitor-treated cells; settings: MEK inhibitor treatment (AZD8330 50 nM, 18 hr)
Procedure: FIG. 42 is a photograph of a Western blot showing expression of phospho-Akt, phospho-Erk, phospho-S6, Myc, and Actin (loading control) in iKras p53L/+ cells treated with AZD8330 (50 nM), BKM120 (150 nM), or Rapamycin (20 nM) for 18 hours. As control, cells were cultured in the presence or absence of doxycycline for 24 hours.
Tissues were fixed in 10% formalin overnight and embedded in paraffin. Immunohistochemical analysis was performed as described (see, Aguirre et al. (2003) Genes Dev 17:3112-3126). The visualization of primary antibodies was performed with horseradish peroxidase system (Vectastain ABC kit, Vector Labs, Inc., Burlingame, Calif.). Images were captured using a Leica DM1400B microsystem and Leica FW4000 version 1.2.1. […]
To further dissect the downstream mechanism of Kras^G12D-mediated metabolic reprogramming, specific pharmacological inhibitors were used to examine the impact of effector pathways on tumor metabolism. iKras p53L/+ cells were treated with AZD8330 (50 nM), BKM120 (150 nM), or Rapamycin (20 nM) for 18 hr. In parallel, cells were cultured in the presence or absence of doxy for 24 hr to serve as controls and relative mRNA levels of indicated metabolism genes were measured by QPCR. […]

iKras p53L/+ cells [4] = test: GSH and GSSG levels normalized to cell number; settings: 0.5 mM BSO for 24 hours, FIG. 33
Procedure: FIG. 33 is a bar graph quantifying the GSH and GSSG levels normalized to cell number in iKras p53L/+ cells or constitutive LSL-KrasG12D p53L/+ control cells (LSL-Kras) maintained in the presence or absence of doxycycline (Dox+/−) or treated with 0.5 mM BSO for 24 hours; statistical significance is indicated as follows: *: p<0.05.
Doxycycline (Research Product International), BSO (Sigma), Ras activation assay kit (Millipore), G6PD activity assay kit (BioVision), GSH/GSSG-Glo™ assay kit (Promega, Madison, Wis.).
To explore this possibility in the context of Kras^G12D-driven PDAC, ^14C1- or ^14C6-labeled glucose was used to measure the production of CO2 from the oxidative PPP (^14C1—CO2) relative to that generated from the glycolysis-TCA cycle route (^14C6—CO2). Consistent with data showing that Kras^G12D de-induction exerts a minimal effect on TCA cycle intermediates (FIG. 18), no obvious change in the release of ^14C6—CO2 was observed upon doxycycline withdrawal (FIG. 32). More importantly, no significant decrease in the release of ^14C1—CO2 was detected (FIG. 32), indicating Kras^G12D extinction was not associated with decreased flux through the oxidative arm of the PPP.

iKras p53L/+ PDAC cells = test: Clonogenic assay; settings: shRNA against FASN, FIG. 49
Procedure: FIG. 38 is a bar graph quantifying the clonogenic activity, expressed as colony number, in iKras p53L/+ cells maintained under high (11 mM) or low (1 mM) glucose, determined for cells infected with shRNA against GFP, RPIA, RPE, or RPIA+RPE; statistical significance is indicated as follows: *: p<0.05; **: p<0.01.
FIG. 49 is a bar graph quantifying the colony numbers in a clonogenic assay for iKras p53L/+ PDAC cells infected with shRNA against GFP or FASN.
400 cells were seeded into each well of 6-well plate in duplicate and colonies were stained 7-10 days later with 0.2% crystal violet in 80% methanol.

FASN = test: Relative expression of FASN after shRNA against FASN; settings: iKras p53L/+ PDAC, FIG. 48
Text: FIG. 48 is a bar graph quantifying the relative expression level of FASN in iKras p53L/+ PDAC infected with shRNA against GFP or FASN.
(§1) Lentiviral shRNA clones targeting Gfpt1, RPIA, RPE, MYC, and FASN and nontargeting control construct shGFP were obtained from the RNAi Consortium at the Dana-Farber/Broad Institute. The clone IDs and nucleic acid sequences for the shRNAs are:
As shown in Example 4, above, extinction of iKras led to decreased expression of FASN. Thus, it was next determined whether FASN plays a role in tumorigenesis in PDAC tumor model. iKras p53L/+ PDAC were treated with shRNA against FASN or GFP (control). […] Thus, FASN was determined to play a role in tumorigenic activity of iKras p53L/+ PDAC cells.

Gfpt1 = test: Western blot for O-GlcNAc after shRNA knockdown of Gfpt1; settings: shRNA against Gfpt1, FIG. 25
Procedure: FIG. 25 is a photograph of a Western blot analysis for O-GlcNAc and Gfpt1 levels in KrasG12D p53L/+ cells infected with shRNA against GFP or Gfpt1. For control samples, MEFs were cultured in the presence or absence of glucose (Glc+, Glc−) for 24 hours. Actin was used as a loading control.
Tissues were fixed in 10% formalin overnight and embedded in paraffin. Immunohistochemical analysis was performed as described (see, Aguirre et al. (2003) Genes Dev 17:3112-3126). The visualization of primary antibodies was performed with horseradish peroxidase system (Vectastain ABC kit, Vector Labs, Inc., Burlingame, Calif.). Images were captured using a Leica DM1400B microsystem and Leica FW4000 version 1.2.1. The primary antibodies used for immunohistochemistry or Western blot were: SMA (NB600-531, Novus Biologicals®, Littleton, Colo.), BrdU (ab1293, Abcam, Cambridge, Mass.), cleaved-Caspase3 (9664, Cell Signaling, Danvers, Mass.), phosphor-Akt (4060, Cell Signaling), phospho-Erk (4376, Cell Signaling), phospho-S6 (4858, Cell Signaling), Actin (sc-1615, Santa Cruz, Santa Cruz, Calif.), Ras (05-516, Millipore, Billerica, Mass.), O-GlcNAc (ab2739, Abcam). Gfpt1 antibody was a kind gift from Immuno-Biological Laboratories Co., Gunma, Japan.
as §1
Lentiviruses were produced in 293T cells with packing mix (ViraPower Lentiviral Expression System, Invitrogen, Carlsbad, Calif.) as per manufacturer's instruction. 293T cell supernatant containing the shRNA lentivirus was collected, filtered through 0.45 μm filter, and added to target iKras cells in the presence of 8 μg/ml polybrene.
To further substantiate the essentiality of Kras^G12D-mediated control of protein glycosylation, the impact of shRNA-mediated knockdown of Gfpt1 was assessed. […]

For Cc1cc(C(=O)NOCCO)c(Nc2ccc(I)cc2F)n(C)c1=O [AZD8330], the “expression of glycolytic genes (Glut1, Hk1, Eno1, Ldha), HBP gene (Gfpt1) and nonoxidative PPP gene (Rpia), relative mRNA” value (iKras p53L/+ cells [1]) was “significantly decreased”, the “metabolite changes in the glycolysis, HBP and nonoxidative PPP pathways” value (iKras p53L/+ cells [2]; AZD8330 50 nM, FIG. 43) was “recapitulated the Kras^G12D inactivation induced metabolite changes” and the Myc protein level (iKras p53L/+ cells [3]) was “decreased”.

For Nc1cc(C(F)(F)F)c(-c2cc(N3CCOCC3)nc(N3CCOCC3)n2)cn1 [BKM120], the “impact on iKras-directed tumor metabolism” value (iKras p53L/+ cells [2]; BKM120 150 nM, FIGS. 41, 42 and 43) was “did not exhibit a significant impact”.

For CCCCS(=N)(=O)CCC(N)C(=O)O (stereo not shown) [BSO, buthionine sulfoximine], the “ratio of GSH/GSSG” value (iKras p53L/+ cells [4]) was “dramatically reduced”.

In the case of “FASN shRNA1: lentiviral shRNA clone targeting FASN, GCTGGTCGTTTCTCCATTAAA (SEQ ID NO: 172)”, the colony formation (iKras p53L/+ PDAC cells) is reported as “marked decrease” and the FASN expression (FASN) is reported as “marked decrease”.

In the case of “shRNA4: lentiviral shRNA clone targeting FASN, CGTCTATACCACTGCTTACTA (SEQ ID NO: 175)”, the colony formation (iKras p53L/+ PDAC cells) is reported as “marked decrease” and the FASN expression (FASN) is reported as “marked decrease”.

For “shRNA #1: lentiviral shRNA clone targeting Gfpt1, CCTGAAACTTAAGACAGTTAA (SEQ ID NO: 165)”, the “overall O-linked glycosylation (O-GlcNAc)” value (Gfpt1) was “reduced”.

For “shRNA #2: lentiviral shRNA clone targeting Gfpt1, CGTCTCTCTATCCACCGAATT (SEQ ID NO: 166)”, the “overall O-linked glycosylation (O-GlcNAc)” value (Gfpt1) was “failed to affect glycosylation”.

“shRNA #3: lentiviral shRNA clone targeting Gfpt1, CAGGGCATTCTCAGTGTGATT (SEQ ID NO: 167)” was tested, and the “overall O-linked glycosylation (O-GlcNAc)” value (Gfpt1) was “reduced”.

“shRNAS: lentiviral shRNA clone targeting FASN, GCTGCGGAAACTTCAGGAAAT (SEQ ID NO: 176)” was tested, and the colony formation (iKras p53L/+ PDAC cells) was “to some extent”.
